# Experimental data as given in ChEMBL document CHEMBL1139549, “Two prodrugs of potent and selective GluR5 kainate receptor antagonists actives in three animal models of pain” (J Med Chem, 2005).
# pKi: −log10 of the molar value.
# Assays:
# [1] = Inhibition of [3H]KA binding to human iontropic glutamate receptors 5 and 6
# [2] = Inhibition of [3H]KA binding to human iontropic glutamate receptors 5 and KA-2
# [3] = molecular target: Glutamate receptor ionotropic, kainate 1 (Homo sapiens, UniProt P39086)
# Chain of Glutamate receptor ionotropic, kainate 1 (P39086 whole entry): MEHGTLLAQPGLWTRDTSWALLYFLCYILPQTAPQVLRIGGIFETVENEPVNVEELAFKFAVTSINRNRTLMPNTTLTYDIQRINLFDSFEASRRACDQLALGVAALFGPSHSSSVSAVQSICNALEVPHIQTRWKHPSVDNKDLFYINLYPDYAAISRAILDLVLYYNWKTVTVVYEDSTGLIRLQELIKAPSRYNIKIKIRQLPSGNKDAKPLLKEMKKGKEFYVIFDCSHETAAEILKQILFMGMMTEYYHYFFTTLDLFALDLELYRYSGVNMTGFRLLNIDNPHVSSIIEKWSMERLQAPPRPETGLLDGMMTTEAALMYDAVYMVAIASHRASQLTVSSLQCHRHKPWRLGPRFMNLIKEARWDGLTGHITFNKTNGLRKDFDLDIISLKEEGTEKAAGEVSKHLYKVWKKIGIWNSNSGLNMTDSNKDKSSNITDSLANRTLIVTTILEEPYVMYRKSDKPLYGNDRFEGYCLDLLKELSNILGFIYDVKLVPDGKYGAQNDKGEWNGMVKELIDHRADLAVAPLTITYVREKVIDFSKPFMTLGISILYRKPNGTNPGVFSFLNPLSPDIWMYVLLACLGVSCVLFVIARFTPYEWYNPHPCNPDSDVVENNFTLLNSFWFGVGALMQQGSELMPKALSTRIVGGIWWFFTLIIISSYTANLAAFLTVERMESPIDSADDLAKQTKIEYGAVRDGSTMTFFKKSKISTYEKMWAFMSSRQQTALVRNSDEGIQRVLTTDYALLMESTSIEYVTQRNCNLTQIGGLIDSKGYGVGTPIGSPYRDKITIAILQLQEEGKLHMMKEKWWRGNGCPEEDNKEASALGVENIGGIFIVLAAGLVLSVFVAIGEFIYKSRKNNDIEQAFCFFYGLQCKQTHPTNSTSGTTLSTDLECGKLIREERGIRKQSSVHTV
# Description: Inhibition of [3H]-KA binding to iontropic glutamate receptor 5
# [4] = molecular target: Glutamate receptor ionotropic, kainate 2 (Homo sapiens, UniProt Q13002); assay: Inhibition of [3H]KA binding to iontropic glutamate receptor 6
# Chain of Glutamate receptor ionotropic, kainate 2 (Q13002 whole entry): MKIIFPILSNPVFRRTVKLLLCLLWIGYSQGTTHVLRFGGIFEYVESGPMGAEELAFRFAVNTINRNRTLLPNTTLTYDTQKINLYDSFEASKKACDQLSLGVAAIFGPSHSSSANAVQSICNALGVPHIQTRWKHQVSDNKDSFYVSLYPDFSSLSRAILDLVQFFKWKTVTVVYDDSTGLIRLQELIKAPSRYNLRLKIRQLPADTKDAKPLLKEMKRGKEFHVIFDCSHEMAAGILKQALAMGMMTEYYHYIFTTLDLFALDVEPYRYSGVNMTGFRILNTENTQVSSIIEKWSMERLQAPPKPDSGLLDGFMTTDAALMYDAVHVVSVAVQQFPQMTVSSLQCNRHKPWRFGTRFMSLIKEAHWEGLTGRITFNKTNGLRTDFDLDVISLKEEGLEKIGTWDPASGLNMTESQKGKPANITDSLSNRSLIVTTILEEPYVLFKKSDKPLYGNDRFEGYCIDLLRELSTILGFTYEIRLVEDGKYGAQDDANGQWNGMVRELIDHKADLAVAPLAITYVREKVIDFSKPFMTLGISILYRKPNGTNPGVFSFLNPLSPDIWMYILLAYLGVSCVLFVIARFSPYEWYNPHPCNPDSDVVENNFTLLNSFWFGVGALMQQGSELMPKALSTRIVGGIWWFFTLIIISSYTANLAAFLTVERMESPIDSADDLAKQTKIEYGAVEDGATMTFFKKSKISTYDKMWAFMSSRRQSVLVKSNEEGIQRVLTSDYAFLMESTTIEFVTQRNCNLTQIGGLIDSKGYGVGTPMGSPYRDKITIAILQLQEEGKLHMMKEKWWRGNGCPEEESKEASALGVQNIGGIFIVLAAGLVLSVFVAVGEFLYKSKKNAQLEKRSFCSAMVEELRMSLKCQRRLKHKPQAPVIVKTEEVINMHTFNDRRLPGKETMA
# [5] = Inhibition of [3H]KA binding to human iontropic glutamate receptors 6 and KA-2
# Glutamate receptor 2 = Glutamate receptor 2 (Homo sapiens, UniProt P42262); assay: biochemical
# Chain of Glutamate receptor 2 (P42262 whole entry): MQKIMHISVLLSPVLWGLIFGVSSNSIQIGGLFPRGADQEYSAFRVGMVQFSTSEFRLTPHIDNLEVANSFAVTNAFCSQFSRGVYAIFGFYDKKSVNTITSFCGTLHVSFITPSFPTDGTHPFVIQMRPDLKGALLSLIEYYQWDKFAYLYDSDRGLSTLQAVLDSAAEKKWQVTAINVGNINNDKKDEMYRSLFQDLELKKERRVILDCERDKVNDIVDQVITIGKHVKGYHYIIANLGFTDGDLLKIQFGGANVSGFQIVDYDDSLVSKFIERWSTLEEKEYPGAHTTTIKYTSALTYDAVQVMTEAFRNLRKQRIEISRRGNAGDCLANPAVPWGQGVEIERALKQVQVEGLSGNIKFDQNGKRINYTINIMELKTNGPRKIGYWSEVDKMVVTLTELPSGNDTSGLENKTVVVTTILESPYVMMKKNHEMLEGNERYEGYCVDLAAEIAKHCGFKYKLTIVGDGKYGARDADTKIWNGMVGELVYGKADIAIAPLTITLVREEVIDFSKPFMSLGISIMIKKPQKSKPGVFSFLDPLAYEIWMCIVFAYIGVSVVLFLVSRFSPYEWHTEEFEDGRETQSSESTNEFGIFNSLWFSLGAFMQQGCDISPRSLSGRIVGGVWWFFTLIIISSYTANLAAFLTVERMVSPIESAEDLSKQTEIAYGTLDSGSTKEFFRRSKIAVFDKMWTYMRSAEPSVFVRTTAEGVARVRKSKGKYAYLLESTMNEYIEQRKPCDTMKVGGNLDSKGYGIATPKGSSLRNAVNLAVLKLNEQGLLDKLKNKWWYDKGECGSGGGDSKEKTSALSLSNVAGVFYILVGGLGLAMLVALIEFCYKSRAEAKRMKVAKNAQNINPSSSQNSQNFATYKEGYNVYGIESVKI
# Description: Inhibition of [3H]-AMPA binding to human GluR2 receptors expressed in HEK 293 cells
Compound,pKi [1],pKi [2],pKi [3],pKi [4],pKi [5],pKi (Glutamate receptor 2)
CCC(CC)COC(=O)[C@@H]1C[C@H]2C[C@@H](Nc3ccccc3-c3nn[nH]n3)CC[C@H]2CN1,4.86,< 4.00,4.50,< 4.00,< 4.00,< 4.00
O=C(O)c1ccc(C[C@H]2CC[C@H]3CN[C@H](C(=O)O)C[C@H]3C2)cc1,4.99,< 4.00,–,< 4.00,< 4.00,< 4.00
NS(=O)(=O)c1cccc2c1c([N+](=O)[O-])cc1nc(O)c(O)nc12 [NBQX],5.21,4.58,–,–,6.22,–
CC(C)COC(=O)[C@@H]1C[C@H]2C[C@@H](Oc3ccccc3-c3nn[nH]n3)CC[C@H]2CN1,5.22,4.22,5.13,< 4.00,< 4.00,< 4.00

# Now those with a higher pKi [1], led by results:
pKi [1],pKi [2],pKi [3],pKi [4],pKi [5],pKi (Glutamate receptor 2),Compound
5.68,4.79,5.38,< 4.00,< 4.00,–,O=C(O)[C@@H]1C[C@H]2C[C@@H](CCc3nn[nH]n3)CC[C@H]2CN1 [TEZAMPANEL ANHYDROUS]
6.00,5.10,5.77,< 4.00,< 4.00,5.08,O=C(O)[C@@H]1C[C@H]2C[C@@H](Oc3ccccc3-c3nn[nH]n3)CC[C@H]2CN1
5.86,5.01,5.81,< 4.00,< 4.00,5.26,O=C(O)[C@@H]1C[C@H]2C[C@@H](Nc3ccccc3-c3nn[nH]n3)CC[C@H]2CN1
